In US20170100489A1, “POLYETHYLENE GLYCOL-MODIFIED INTEGRIN BLOCKER HM-3 AND USE THEREOF” (HANMEI XU, priority 2012, published 2017):
Read-outs that look alike come from different tables or passages of the source. One block for each molecule: values may come before it. Where a SMILES comes first, the peptide text is derived from it. Where no end group is shown, it is not given here. mPEG‑SC20k = methoxy polyethylene glycol-succinimidyl-carbonate, 20000 Da

How the values were obtained:
[1] = test system: human esophageal cancer Ec109 xenograft tumors; format: in vivo, nude mice
Method: Tumor diameter was measured with a vernier caliper. […] Tumor volume formula: […]
a, b respectively represent the length and width. […] The formula is as follows: […]
TRTV: Treatment Group RTV; CRTV: Negative Control Group RTV

[2] = test system: human kidney cancer A498 xenograft tumors; experiment: Tumor growth inhibition, A498 xenograft
Method: Human kidney cancer A498 cell lines in logarithmic growth phase were picked and made into 5×10^7/ml cell suspension of under sterile conditions, and then 0.1 ml suspension was inoculated subcutaneously at the right armpit of nude mice. Tumor diameter was measured with a vernier caliper. The animals which had tumors with a size of 100-200 mm^3 were randomly divided into groups. The effect of polypeptide on anti-tumor was dynamically observed through the method of measuring tumor diameter. The times of measuring tumor diameter were once 2 days, and meantime, weighed mice. The mice in experimental group were infused polypeptide through tail vein. The mice in the placebo group were injected saline with the same volume, once 1 day; Taxol group: 10 mg/kg, once 1 week; Endostar group: 2.5 mg/kg, once 1 day; The groups of high, intermediate and low polypeptide: 6, 3, 1.5 mg/kg, respectively, once 1 day. After administration, all mice were sacrificed. Stripped the tumors and weighed.

[3] = test system: human bladder cancer HT1376 xenograft tumors; experiment: Tumor growth inhibition, HT1376 xenograft
Method: Human bladder cancer HT1376 cell lines in logarithmic growth phase were picked, and made into 5×10^7/ml cell suspension of under sterile conditions, and then 0.1 ml suspension was inoculated subcutaneously at the right armpit of nude mice. Tumor diameter was measured with a vernier caliper. The animals which had tumors with a size of 100-200 mm^3 were randomly divided into groups. The effect of polypeptide on anti-tumor was dynamically observed through the method of measuring tumor diameter. The times of measuring tumor diameter were once 2 days, and meantime, weighed mice. The mice in experimental group were infused polypeptide through tail vein. The mice in the placebo group were injected saline with the same volume, once 1 day; Taxol group: 10 mg/kg, once 1 week; Endostar group: 2.5 mg/kg, once 1 day; The groups of high, intermediate and low polypeptide: 6, 3, 1.5 mg/kg, respectively, once 1 day. After administration, all mice were sacrificed. Stripped the tumors and weighed.

[4] = test system: human prostate cancer DU-145 xenograft tumors; experiment: Tumor growth inhibition, DU-145 xenograft
Method: Human prostate cancer DU-145 cell lines in logarithmic growth phase were picked, and made into 5×10^7/ml cell suspension of under sterile conditions, and then 0.1 ml suspension was inoculated subcutaneously at the right armpit of nude mice. Tumor diameter was measured with a vernier caliper. The animals which had tumors with a size of 100-200 mm^3 were randomly divided into groups. The effect of polypeptide on anti-tumor was dynamically observed through the method of measuring tumor diameter. The times of measuring tumor diameter were once 2 days, and meantime, weighed mice. The mice in experimental group were infused polypeptide through tail vein. The mice in the placebo group were injected saline with the same volume, once 1 day; Cisplatin group: 10 mg/kg, once 1 week; Endostar group: 2.5 mg/kg, once 1 day; The groups of high, intermediate and low polypeptide: 6, 3, 1.5 mg/kg, respectively, once 1 day. After administration, all mice were sacrificed. Stripped the tumors and weighed.

[5] = test system: human gastric cancer MGC803 xenograft tumors; experiment: Tumor growth inhibition, MGC803 xenograft
Method: (§1) Picked the tumor tissue of vigorous growth and was cut into pieces of about 1.5 mm^3. Under sterile conditions, the tumor tissue was inoculated subcutaneously on the right of nude mice. Tumor diameter was measured with a vernier caliper. The animals which had tumors with a size of 100-200 mm^3 were randomly divided into groups. The effect of polypeptide on anti-tumor was dynamically observed through the method of measuring tumor diameter. The times of measuring tumor diameter were once 2 days, and meantime, weighed mice. The mice in experimental group were infused polypeptide through tail vein, once 3 days. The mice in the placebo group were injected saline with the same volume. Tumor volume formula:
(§2) a, b respectively represent the length and width. According to the result of measurement, calculate the relative tumor volume. Evaluation of antitumor activity is relative tumor proliferation rate T/C(%). The formula is as follows: T/C(%)^=TRTV/CRTV×100%
(§3) TRTV: Treatment group RTV; CRTV: negative control group RTV

[6] = test system: human endometrial cancer HHUA xenograft tumors; experiment: Tumor growth inhibition, HHUA xenograft
Method: Human endometrial cancer HHUA cell lines in logarithmic growth phase were picked, and made into 5×10^7/ml cell suspension of under sterile conditions, and then 0.1 ml suspension was inoculated subcutaneously at the right armpit of nude mice. Tumor diameter was measured with a vernier caliper. The animals which had tumors with a size of 100-200 mm^3 were randomly divided into groups. The effect of polypeptide on anti-tumor was dynamically observed through the method of measuring tumor diameter. The times of measuring tumor diameter were once 2 days, and meantime, weighed mice. The mice in experimental group were infused polypeptide through tail vein. The mice in the placebo group were injected saline with the same volume, once 1 day; Taxol group: 10 mg/kg, once 1 week; Endostar group: 2.5 mg/kg, once 1 day; The groups of high, intermediate and low polypeptide: 6, 3, 1.5 mg/kg, respectively, once 1 day. After administration, all mice were sacrificed. Stripped the tumors and weighed.

[7] = test system: human cancer 5637 xenograft tumors; experiment: Tumor growth inhibition, 5637 xenograft
Method: (§4) Human testicular cancer 5637 cell lines in logarithmic growth phase were picked, and made into 5×10^7/ml cell suspension of under sterile conditions, and then 0.1 ml suspension was inoculated subcutaneously at the right armpit of nude mice. Tumor diameter was measured with a vernier caliper. The animals which had tumors with a size of 100-200 mm^3 were randomly divided into groups. The effect of polypeptide on anti-tumor was dynamically observed through the method of measuring tumor diameter. The times of measuring tumor diameter were once 2 days, and meantime, weighed mice. The mice in experimental group were infused polypeptide through tail vein. […] After administration, all mice were sacrificed. Stripped the tumors and weighed.

[8] = test system: human testicular cancer 5637 xenograft tumors; experiment: Tumor growth inhibition, 5637 xenograft
Method: as §4

[9] = test system: human cervical cancer HeLa xenograft tumors; experiment: Tumor growth inhibition, HeLa xenograft
Method: Human cervical cancer HeLa cell lines in logarithmic growth phase were picked, and made into 5×10^7/ml cell suspension of under sterile conditions, and then 0.1 ml suspension was inoculated subcutaneously at the right armpit of nude mice. Tumor diameter was measured with a vernier caliper. The animals which had tumors with a size of 100-200 mm^3 were randomly divided into groups. The effect of polypeptide on anti-tumor was dynamically observed through the method of measuring tumor diameter. The times of measuring tumor diameter were once 2 days, and meantime, weighed mice. The mice in experimental group were infused polypeptide through tail vein. The mice in the placebo group were injected saline with the same volume, once 1 day; Taxol group: 10 mg/kg, once 1 week; Endostar group: 2.5 mg/kg, once 1 day; The groups of high, intermediate and low polypeptide: 6, 3, 1.5 mg/kg, respectively, once 1 day. After administration, all mice were sacrificed. Stripped the tumors and weighed.

[10] = test system: human colon cancer HT-29 xenograft tumors; experiment: Tumor growth inhibition, HT-29 xenograft
Method: Human colon cancer HT-29 cell lines in logarithmic growth phase were picked, and made into 5×10^7/ml cell suspension of under sterile conditions, and then 0.1 ml suspension was inoculated subcutaneously at the right armpit of nude mice. Tumor diameter was measured with a vernier caliper. The animals which had tumors with a size of 100-200 mm^3 were randomly divided into groups. The effect of polypeptide on anti-tumor was dynamically observed through the method of measuring tumor diameter. The times of measuring tumor diameter were once 2 days, and meantime, weighed mice. The mice in experimental group were infused polypeptide through tail vein. The mice in the placebo group were injected saline with the same volume, once 1 day; Taxol group: 10 mg/kg, once 1 week; Endostar group: 2.5 mg/kg, once 1 day; The groups of high, intermediate and low polypeptide: 6, 3, 1.5 mg/kg, respectively, once 1 day. After administration, all mice were sacrificed. Stripped the tumors and weighed.

[11] = test system: human lung cancer H460 xenograft tumors; experiment: Tumor growth inhibition, H460 xenograft
Method: as §1, §2, §3

[12] = test system: human gallbladder cancer GBC-SD xenograft tumors; experiment: Tumor growth inhibition, GBC-SD xenograft
Method: Human gallbladder cancer GBC-SD cell lines in logarithmic growth phase were picked and made into 5×10^7/ml cell suspension of under sterile conditions, and then 0.1 ml suspension was inoculated subcutaneously at the right armpit of nude mice. Tumor diameter was measured with a vernier caliper. The animals which had tumors with a size of 100-200 mm^3 were randomly divided into groups. The effect of polypeptide on anti-tumor was dynamically observed through the method of measuring tumor diameter. The times of measuring tumor diameter were once 2 days, and meantime, weighed mice. The mice in experimental group were infused polypeptide through tail vein. The mice in the placebo group were injected saline with the same volume, once 1 day; Taxol group: 10 mg/kg, once 1 week; Endostar group: 2.5 mg/kg, once 1 day; The groups of high, intermediate and low polypeptide: 6, 3, 1.5 mg/kg, respectively, once 1 day. After administration, all mice were sacrificed. Stripped the tumors and weighed.

[13] = test system: human breast cancer MDA-MB-231 xenograft tumors; experiment: Tumor growth inhibition, MDA-MB-231 xenograft
Method: Picked the tumor tissue of vigorous growth and was cut into pieces of about 1.5 mm^3. Under sterile conditions, the tumor tissue was inoculated subcutaneously on the right of nude mice. Tumor diameter was measured with a vernier caliper. The animals which had tumors with a size of 100-200 mm^3 were randomly divided into groups. The effect of polypeptide on anti-tumor was dynamically observed through the method of measuring tumor diameter. The times of measuring tumor diameter were once 2 days, and meantime, weighed mice. The mice in experimental group were infused polypeptide through tail vein, once 3 days. The mice in the placebo group were injected saline with the same volume. Tumor volume formula: TV=0.52×a×b^2
as §2, §3

[14] = test system: sarcoma HT-1080 xenograft tumors; experiment: Tumor growth inhibition, HT-1080 xenograft
Method: Tumor diameter was measured with a vernier caliper. […] After administration, all mice were sacrificed. Stripped the tumors and weighed.

[15] = test system: human nasopharyngeal cancer CNE xenograft tumors; experiment: Tumor growth inhibition, CNE xenograft
Method: as §1
a, b respectively represent the length and width. According to the result of measurement, calculate the relative tumor volume. Evaluation of antitumor activity is relative tumor proliferation rate T/C(%). The formula is as follows: T/C(%)^−TRTV/CRTV×100%

[16] = test system: human thyroid cancer SW-579 xenograft tumors; experiment: Tumor growth inhibition, SW-579 xenograft; settings: for Final weight / Rate of inhibiting tumors / Tumor weight: Once 1 day
Method: as §1, §2

[17] = test system: human ovarian cancer SK-OV-3 xenograft tumors; experiment: Tumor growth inhibition, SK-OV-3 xenograft
Method: Human ovarian cancer SK-OV-3 cell lines in logarithmic growth phase were picked, and made into 5×10^7/ml cell suspension of under sterile conditions, and then 0.1 ml suspension was inoculated subcutaneously at the right armpit of nude mice. Tumor diameter was measured with a vernier caliper. The animals which had tumors with a size of 100-200 mm^3 were randomly divided into groups. The effect of polypeptide on anti-tumor was dynamically observed through the method of measuring tumor diameter. The times of measuring tumor diameter were once 2 days, and meantime, weighed mice. The mice in experimental group were infused polypeptide through tail vein. The mice in the placebo group were injected saline with the same volume, once 1 day; Cisplatin group: 10 mg/kg, once 1 week; Endostar group: 2.5 mg/kg, once 1 day; The groups of high, intermediate and low polypeptide: 6, 3, 1.5 mg/kg, respectively, once 1 day. After administration, all mice were sacrificed. Stripped the tumors and weighed.

[18] = test system: human pancreatic cancer SW-1990 xenograft tumors; experiment: Tumor growth inhibition, SW-1990 xenograft
Method: Picked the tumor tissue of vigorous growth and was cut into pieces of about 1.5 mm^3. Under sterile conditions, the tumor tissue was inoculated subcutaneously on the right of nude mice. Tumor diameter was measured with a Vernier caliper. The animals which had tumors with a size of 100-200 mm^3 were randomly divided into groups. The effect of polypeptide on anti-tumor was dynamically observed through the method of measuring tumor diameter. The times of measuring tumor diameter were once 2 days, and meantime, weighed mice. The mice in experimental group were infused polypeptide through tail vein, once 3 days. The mice in the placebo group were injected saline with the same volume.
as §2
TRTV:Treatment group RTV; CRTV: negative control group RTV

[19] = Immunogenicity assay, antibody titers in serum by ELISA; settings: 3.0 mg/kg iv once a day, 8 weeks; FIG. 2
Method: BALB/c white mice were randomly divided into 2 groups, and the same number of male and female. 36 mg/kg mPEG-SC20k-HM-3 and 3.0 mg/kg HM-3 were administrated intravenously through tail vein, respectively, lasting 8 weeks, and collected blood from the orbital venous plexus once a week during 1-12 weeks. Centrifuged 2 min at 12000 rpm, collected the supernatant, and stored in the condition of −20° C. Dissolved at room temperature, 0.1 ml was used to measure antibody titers in serum by ELISA.
Administration: once a day, 6 rats (male, 3; female, 3)
Administration: once two days, 6 rats (male, 3; female, 3)

[20] = Pharmacokinetics of mPEG-SC20k-HM-3 and HM-3 in rats (plasma concentration by ELISA)
Method: SD rats were randomly divided into six groups with the same number for male and female. Take three groups were administered intravenously integrin antagonist polypeptide with a high dose of 52 mg/kg (equivalent to HM-3 4.2 mg/kg), an intermediate dose of 26 mg/kg (equivalent to HM-3 2.1 mg/kg), a low-dose of 13 mg/kg (equivalent to HM-3 1.05 mg/kg). The other 3 groups were injected HM-3 with a high dose of 4.2 mg/kg, an intermediate dose of 2.1 mg/kg, a low doses of 1.05 mg/kg. Collected whole blood 0.5 ml once from the orbital venous plexus after 0.5 h, 1 h, 2 h, 3 h, 6 h, 12 h, 24 h, 48 h, 72 h, 96 h, 108 h, 132 h of drug administration, and applied heparin to get the effect of anti-coagulation. 12000 rpm/2 min centrifuged plasma. Draw supernatant 200 μl and 80° C. preheated PBS (0.05 M pH7.4) buffer 600 μl and mixed. Bath in the 80° C. water for 30 min. Centrifuged 2 min at 12000 rpm, and collected the supernatant, and stored in the condition of −20° C. Dissolved at room temperature, measured integrin antagonist peptide plasma concentration by ELISA.

integrin α5β1 = biological target: T1, integrin α5β1 (human, UniProt P08648 42-1049; P05556 21-798); experiment: flow cytometry, FITC-labeled peptide on Bel-7402 and MCF-7 cells pre-incubated with function-blocking anti-integrin antibodies
T1 construct: whole, on cells; Endogenous integrin on Bel-7402 and MCF-7 cells; also called alpha 5 beta 1

integrin ανβ3 = biological target: T2, integrin ανβ3 (human, UniProt P06756 31-1048; P05106 27-788); experiment: as above
T2 construct: whole, on cells; Endogenous integrin on Bel-7402 and MCF-7 cells; also called alpha v beta 3
T2 sequence (P06756 31-1048, chain 1 of 2): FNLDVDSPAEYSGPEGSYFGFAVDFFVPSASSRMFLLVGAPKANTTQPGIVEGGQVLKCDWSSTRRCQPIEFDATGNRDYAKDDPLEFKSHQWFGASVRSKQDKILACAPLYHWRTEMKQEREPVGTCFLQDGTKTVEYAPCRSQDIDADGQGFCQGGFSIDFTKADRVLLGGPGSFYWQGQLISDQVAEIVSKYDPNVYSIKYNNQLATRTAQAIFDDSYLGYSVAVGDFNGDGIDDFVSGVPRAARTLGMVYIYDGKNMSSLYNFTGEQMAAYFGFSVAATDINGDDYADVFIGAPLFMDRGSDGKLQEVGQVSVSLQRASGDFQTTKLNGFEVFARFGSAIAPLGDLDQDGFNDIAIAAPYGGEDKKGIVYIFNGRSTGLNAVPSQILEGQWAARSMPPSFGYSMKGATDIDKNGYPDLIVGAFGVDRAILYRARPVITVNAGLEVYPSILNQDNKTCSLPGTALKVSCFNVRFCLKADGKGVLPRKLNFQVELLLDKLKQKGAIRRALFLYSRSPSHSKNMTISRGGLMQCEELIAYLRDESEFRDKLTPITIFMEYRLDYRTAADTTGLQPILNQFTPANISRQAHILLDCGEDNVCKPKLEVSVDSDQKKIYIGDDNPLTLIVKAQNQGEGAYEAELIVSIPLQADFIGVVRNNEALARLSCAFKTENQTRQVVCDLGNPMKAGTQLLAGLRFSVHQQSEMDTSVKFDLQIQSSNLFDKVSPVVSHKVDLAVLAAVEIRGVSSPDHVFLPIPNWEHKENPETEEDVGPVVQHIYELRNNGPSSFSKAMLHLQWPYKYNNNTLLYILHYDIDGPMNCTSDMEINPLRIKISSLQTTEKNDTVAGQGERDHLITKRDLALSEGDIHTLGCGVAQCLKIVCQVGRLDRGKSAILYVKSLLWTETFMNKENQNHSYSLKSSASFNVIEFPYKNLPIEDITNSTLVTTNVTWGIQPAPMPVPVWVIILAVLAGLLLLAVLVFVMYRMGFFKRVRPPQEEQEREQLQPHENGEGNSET
T2 sequence (P05106 27-788, chain 2 of 2): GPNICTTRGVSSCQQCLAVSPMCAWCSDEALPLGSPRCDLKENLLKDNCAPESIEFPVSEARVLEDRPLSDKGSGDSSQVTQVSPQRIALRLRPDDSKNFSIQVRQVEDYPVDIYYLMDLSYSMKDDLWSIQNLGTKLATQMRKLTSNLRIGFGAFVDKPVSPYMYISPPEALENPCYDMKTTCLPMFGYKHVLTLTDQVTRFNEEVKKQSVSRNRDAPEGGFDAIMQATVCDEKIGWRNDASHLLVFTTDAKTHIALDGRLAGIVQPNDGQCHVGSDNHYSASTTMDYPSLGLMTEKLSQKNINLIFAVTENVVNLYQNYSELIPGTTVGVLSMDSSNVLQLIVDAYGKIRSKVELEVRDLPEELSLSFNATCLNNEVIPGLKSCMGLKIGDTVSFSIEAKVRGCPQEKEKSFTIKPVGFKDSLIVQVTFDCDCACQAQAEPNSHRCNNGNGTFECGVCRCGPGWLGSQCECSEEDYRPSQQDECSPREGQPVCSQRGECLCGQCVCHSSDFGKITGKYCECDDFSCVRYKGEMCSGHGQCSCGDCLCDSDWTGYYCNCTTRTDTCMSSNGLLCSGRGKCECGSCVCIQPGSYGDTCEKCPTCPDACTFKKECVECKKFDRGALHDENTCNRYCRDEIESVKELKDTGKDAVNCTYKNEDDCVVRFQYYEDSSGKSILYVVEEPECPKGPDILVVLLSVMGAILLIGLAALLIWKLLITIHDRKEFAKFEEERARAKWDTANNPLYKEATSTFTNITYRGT

T1 sequence (P08648 42-1049, chain 1 of 2): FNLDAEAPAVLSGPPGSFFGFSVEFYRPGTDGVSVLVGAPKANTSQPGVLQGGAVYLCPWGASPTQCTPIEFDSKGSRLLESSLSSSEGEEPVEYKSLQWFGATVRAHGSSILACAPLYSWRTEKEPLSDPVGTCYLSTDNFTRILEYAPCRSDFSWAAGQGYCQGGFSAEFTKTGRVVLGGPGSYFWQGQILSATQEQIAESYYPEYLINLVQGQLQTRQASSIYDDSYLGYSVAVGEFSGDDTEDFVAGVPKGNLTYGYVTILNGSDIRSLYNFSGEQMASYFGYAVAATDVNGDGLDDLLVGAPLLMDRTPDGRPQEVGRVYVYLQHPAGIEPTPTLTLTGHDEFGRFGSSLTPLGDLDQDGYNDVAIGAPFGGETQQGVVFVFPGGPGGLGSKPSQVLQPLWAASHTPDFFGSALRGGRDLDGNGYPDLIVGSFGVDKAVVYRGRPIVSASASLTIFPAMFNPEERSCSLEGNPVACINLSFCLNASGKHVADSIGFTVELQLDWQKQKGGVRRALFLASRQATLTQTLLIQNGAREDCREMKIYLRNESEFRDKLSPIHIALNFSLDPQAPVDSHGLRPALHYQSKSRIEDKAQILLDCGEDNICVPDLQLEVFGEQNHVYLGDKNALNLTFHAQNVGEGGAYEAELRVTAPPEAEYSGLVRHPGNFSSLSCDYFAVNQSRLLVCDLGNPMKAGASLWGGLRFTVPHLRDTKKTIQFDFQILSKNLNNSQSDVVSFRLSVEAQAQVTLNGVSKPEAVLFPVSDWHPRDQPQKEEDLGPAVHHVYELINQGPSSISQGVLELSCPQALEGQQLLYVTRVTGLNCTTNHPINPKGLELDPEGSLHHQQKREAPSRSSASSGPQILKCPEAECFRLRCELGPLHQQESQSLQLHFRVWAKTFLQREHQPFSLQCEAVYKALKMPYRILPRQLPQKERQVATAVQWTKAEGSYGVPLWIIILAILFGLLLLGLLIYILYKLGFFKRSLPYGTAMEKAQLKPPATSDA
T1 sequence (P05556 21-798, chain 2 of 2): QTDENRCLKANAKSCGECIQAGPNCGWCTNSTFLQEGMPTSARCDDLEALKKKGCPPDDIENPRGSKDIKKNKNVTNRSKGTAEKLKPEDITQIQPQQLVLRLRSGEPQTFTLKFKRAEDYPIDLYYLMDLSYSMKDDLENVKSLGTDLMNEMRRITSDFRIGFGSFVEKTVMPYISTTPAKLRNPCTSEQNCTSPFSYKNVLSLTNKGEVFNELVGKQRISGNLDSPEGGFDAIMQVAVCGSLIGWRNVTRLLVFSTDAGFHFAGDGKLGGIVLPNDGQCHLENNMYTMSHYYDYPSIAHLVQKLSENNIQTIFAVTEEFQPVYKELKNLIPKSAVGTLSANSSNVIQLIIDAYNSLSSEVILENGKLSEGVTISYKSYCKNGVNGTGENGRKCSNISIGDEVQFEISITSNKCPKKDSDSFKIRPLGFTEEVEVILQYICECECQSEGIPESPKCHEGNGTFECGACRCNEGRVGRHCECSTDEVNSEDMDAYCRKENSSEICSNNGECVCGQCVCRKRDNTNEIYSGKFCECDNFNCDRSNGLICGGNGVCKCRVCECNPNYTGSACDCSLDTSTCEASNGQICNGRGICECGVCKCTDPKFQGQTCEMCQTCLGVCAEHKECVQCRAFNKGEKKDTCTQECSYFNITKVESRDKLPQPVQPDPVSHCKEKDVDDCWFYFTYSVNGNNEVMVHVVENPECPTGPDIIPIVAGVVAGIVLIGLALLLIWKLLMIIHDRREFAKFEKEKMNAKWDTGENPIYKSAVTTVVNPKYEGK

Molecule: CC(=O)O[C@H]1C(=O)[C@@]2(C)[C@H]([C@H](OC(=O)c3ccccc3)[C@]3(O)C[C@H](OC(=O)[C@H](O)[C@@H](NC(=O)c4ccccc4)c4ccccc4)C(C)=C1C3(C)C)[C@]1(OC(C)=O)CO[C@@H]1C[C@@H]2O [Taxol, reference compound]
Rate of inhibiting tumors ([1]; 10 mg/kg, Once 2 days): 70.19%
Tumor weight ([1]; 10 mg/kg, Once 2 days): 0.276 g
Final weight ([2]; 10 mg/kg, Once 2 days): 21.15 g
Rate of inhibiting tumors ([2]; 10 mg/kg, Once 2 days): 74.32%
Tumor weight ([2]; 10 mg/kg, Once 2 days): 0.242 g
Final weight ([3]; 10 mg/kg, Once 2 days): 21.65 g
Rate of inhibiting tumors ([3]; 10 mg/kg, Once 2 days): 67.88%
Tumor weight ([3]; 10 mg/kg, Once 2 days): 0.327 g
Final weight ([4]; 10 mg/kg, Twice a week): 23.81 g
Rate of inhibiting tumors ([4]; 10 mg/kg, Twice a week): 70.60%
Tumor weight ([4]; 10 mg/kg, Twice a week): 0.545 g
Final weight ([5]; 10 mg/kg, Once 2 days): 22.05 g
Rate of inhibiting tumors ([5]; 10 mg/kg, Once 2 days): 74.12%
Tumor weight ([5]; 10 mg/kg, Once 2 days): 0.187 g
Final weight ([6]; 10 mg/kg, Twicw 1 week): 22.19 g
Rate of inhibiting tumors ([6]; 10 mg/kg, Twicw 1 week): 75.55%
Tumor weight ([6]; 10 mg/kg, Twicw 1 week): 0.295 g
Final weight ([7]; 10 mg/kg, Twice 1 week): 24.46 g
Rate of inhibiting tumors ([8]; 10 mg/kg, Twice 1 week): 70.74%
Tumor weight ([8]; 10 mg/kg, Twice 1 week): 0.590 g
Final weight ([9]; 10 mg/kg, Once 2 days): 23.47 g
Rate of inhibiting tumors ([9]; 10 mg/kg, Once 2 days): 65.37%
Tumor weight ([9]; 10 mg/kg, Once 2 days): 0.428 g
Final weight ([10]; 10 mg/kg, Once 2 days): 22.84 g
Rate of inhibiting tumors ([10]; 10 mg/kg, Once 2 days): 69.11%
Tumor weight ([10]; 10 mg/kg, Once 2 days): 0.346 g
Final weight ([11]; 10 mg/kg, Once 2 days): 19.58 g
Rate of inhibiting tumors ([11]; 10 mg/kg, Once 2 days): 68.77%
Tumor weight ([11]; 10 mg/kg, Once 2 days): 0.248 g
Final weight ([12]; 10 mg/kg, Once 2 days): 20.43 g
Rate of inhibiting tumors ([12]; 10 mg/kg, Once 2 days): 78.13%
Tumor weight ([12]; 10 mg/kg, Once 2 days): 0.232 g
Final weight ([13]; 10 mg/kg, Once 2 days): 23.32 g
Rate of inhibiting tumors ([13]; 10 mg/kg, Once 2 days): 73.05%
Tumor weight ([13]; 10 mg/kg, Once 2 days): 0.335 g

Molecule: O=P1(N(CCCl)CCCl)NCCCO1 (stereo not drawn) [Cyclophosphamide]
Final weight ([14]; 15 mg/kg, Once 2 days): 23.85 g
Rate of inhibiting tumors ([14]; 15 mg/kg, Once 2 days): 74.15%
Tumor weight ([14]; 15 mg/kg, Once 2 days): 0.501 g

time of administration at which antibody appeared [19]: third week
AUC0-∞ ([20]; SD rats, intravenous): 25.63 mg/L/h
t1/2p ([20]; SD rats, intravenous): 27.66 min
t1/2β ([20]; SD rats, intravenous): 27.6 min
clearance ([20]; both, SD, rat, plasma, iv): 23 mL/min/kg
half-life ([20]; both, SD, rat, plasma, iv): 27.6 min
MRT inf ([20]; both, SD, rat, plasma, iv, MRT0-∞, SD rats): 2.16 min
Molecule: CC[C@H](C)[C@H](N)C(=O)N[C@H](C(=O)N[C@@H](CCCNC(=N)N)C(=O)N[C@@H](CCCNC(=N)N)C(=O)N[C@@H](C)C(=O)N[C@@H](CC(=O)O)C(=O)N[C@@H](CCCNC(=N)N)C(=O)N[C@@H](C)C(=O)N[C@@H](C)C(=O)N[C@H](C(=O)N1CCC[C@H]1C(=O)NCC(=O)NCC(=O)NCC(=O)NCC(=O)N[C@@H](CCCNC(=N)N)C(=O)NCC(=O)N[C@@H](CC(=O)O)C(=O)O)C(C)C)C(C)C [HM-3, Ile-Val-Arg-Arg-Ala-Asp-Arg-Ala-Ala-Val-Pro-Gly-Gly-Gly-Gly-Arg-Gly-Asp] (H-IVRRADRAAVPGGGGRGD-OH; N-terminus assumed)
Rate of inhibiting tumors ([1]; 1.5 mg/kg, Once 3 days): 60.57%
Tumor weight ([1]; 1.5 mg/kg, Once 3 days): 0.365 g
Final weight ([15]; 1.5 mg/kg, Once 3 days): 22.85 g
Rate of inhibiting tumors ([15]; 1.5 mg/kg, Once 3 days): 61.03%
Tumor weight ([15]; 1.5 mg/kg, Once 3 days): 0.468 g
Final weight ([2]; 1.5 mg/kg, Once 3 days): 20.88 g
Rate of inhibiting tumors ([2]; 1.5 mg/kg, Once 3 days): 54.77%
Tumor weight ([2]; 1.5 mg/kg, Once 3 days): 0.427 g
Final weight ([3]; 1.5 mg/kg, Once 3 days): 22.30 g
Rate of inhibiting tumors ([3]; 1.5 mg/kg, Once 3 days): 50.49%
Tumor weight ([3]; 1.5 mg/kg, Once 3 days): 0.504 g
Final weight ([4]; 1.5 mg/kg, Once 3 days): 23.64 g
Rate of inhibiting tumors ([4]; 1.5 mg/kg, Once 3 days): 56.36%
Tumor weight ([4]; 1.5 mg/kg, Once 3 days): 0.809 g
Final weight ([16]; 1.5 mg/kg): 22.70 g
Rate of inhibiting tumors ([16]; 1.5 mg/kg): 57.70%
Tumor weight ([16]; 1.5 mg/kg): 0.530 g
Final weight ([5]; 1.5 mg/kg, Once 3 days): 22.37 g
Rate of inhibiting tumors ([5]; 1.5 mg/kg, Once 3 days): 70.40%
Tumor weight ([5]; 1.5 mg/kg, Once 3 days): 0.214 g
Rate of inhibiting tumors ([17]; 1.5 mg/kg, Once 3 days): 49.49%
Tumor weight ([17]; 1.5 mg/kg, Once 3 days): 0.639 g
Final weight ([18]; 1.5 mg/kg, Once 3 days): 23.10 g
Rate of inhibiting tumors ([18]; 1.5 mg/kg, Once 3 days): 57.94%
Tumor weight ([18]; 1.5 mg/kg, Once 3 days): 0.582 g
Final weight ([6]; 1.5 mg/kg, Once 3 days): 22.85 g
Rate of inhibiting tumors ([6]; 1.5 mg/kg, Once 3 days): 54.49%
Tumor weight ([6]; 1.5 mg/kg, Once 3 days): 0.550 g
Final weight ([7]; 1.5 mg/kg, Once 3 days): 25.15 g
Rate of inhibiting tumors ([8]; 1.5 mg/kg, Once 3 days): 59.40%
Tumor weight ([8]; 1.5 mg/kg, Once 3 days): 0.82 g
Rate of inhibiting tumors ([14]; 1.5 mg/kg, Once 3 days): 59.24%
Tumor weight ([14]; 1.5 mg/kg, Once 3 days): 0.790 g
Final weight ([9]; 1.5 mg/kg, Once 3 days): 23.86 g
Rate of inhibiting tumors ([9]; 1.5 mg/kg, Once 3 days): 57.25%
Tumor weight ([9]; 1.5 mg/kg, Once 3 days): 0.528 g
Final weight ([10]; 1.5 mg/kg, Once 3 days): 23.15 g
Rate of inhibiting tumors ([10]; 1.5 mg/kg, Once 3 days): 52.59%
Tumor weight ([10]; 1.5 mg/kg, Once 3 days): 0.531 g
Final weight ([11]; 1.5 mg/kg, Once 3 days): 21.11 g
Rate of inhibiting tumors ([11]; 1.5 mg/kg, Once 3 days): 65.42%
Tumor weight ([11]; 1.5 mg/kg, Once 3 days): 0.274 g
Final weight ([12]; 1.5 mg/kg, Once 3 days): 20.92 g
Rate of inhibiting tumors ([12]; 1.5 mg/kg, Once 3 days): 57.59%
Tumor weight ([12]; 1.5 mg/kg, Once 3 days): 0.450 g
Final weight ([13]; 1.5 mg/kg, Once 3 days): 23.54 g
Rate of inhibiting tumors ([13]; 1.5 mg/kg, Once 3 days): 57.14%
Tumor weight ([13]; 1.5 mg/kg, Once 3 days): 0.533 g

Molecule: N.N.[Cl][Pt][Cl] [Cisplatin, reference compound]
influence on the weight of experimental animals ([15]; 10 mg/kg): significantly affects the weight
Final weight ([15]; 10 mg/kg, Twice 1 week): 22.33 g
Rate of inhibiting tumors ([15]; 10 mg/kg, Twice 1 week): 73.36%
Tumor weight ([15]; 10 mg/kg, Twice 1 week): 0.320 g
Rate of inhibiting tumors ([4]; 10 mg/kg, Twice a week): 70.60%
Final weight ([17]; 10 mg/kg, Twice 1 week): 22.19 g
Rate of inhibiting tumors ([17]; 10 mg/kg, Twice 1 week): 76.13%
Tumor weight ([17]; 10 mg/kg, Twice 1 week): 0.302 g
Rate of inhibiting tumors ([8]; 10 mg/kg, Twice 1 week): 70.74%

Molecule: O=c1[nH]cc(F)c(=O)[nH]1 [5-Fu, reference compound]
toxicity in experimental animals ([16]; 10 mg/kg): greater toxicity and leads to the weight loss and death
Final weight ([16]; 10 mg/kg): 21.32 g
Rate of inhibiting tumors ([16]; 10 mg/kg): 74.50%
Tumor weight ([16]; 10 mg/kg): 0.320 g
Final weight ([18]; 10 mg/kg, Once 1 day): 22.43 g
Rate of inhibiting tumors ([18]; 10 mg/kg, Once 1 day): 76.68%
Tumor weight ([18]; 10 mg/kg, Once 1 day): 0.323 g

binding result (integrin α5β1): binds
binding result (integrin ανβ3): binds
B1: mPEG-SC20k-Ile-Val-Arg-Arg-Ala-Asp-Arg-Ala-Ala-Val-Pro-Gly-Gly-Gly-Gly-Arg-Gly-Asp (mPEG-SC20k-HM-3) (peptide)
peptide: {mPEG‑SC20k}-IVRRADRAAVPGGGGRGD
modifications: also: FITC labeled, site not given here
notes: also called integrin antagonist polypeptide
